Reference: PubChem BioAssay (NCI)
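Results reflect a 48-hour exposure of cells in 96-well plates to compound at five concentrations. Here, GI50 denotes the concentration required for 50% inhibition of growth. At the TGI there is no net growth.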

Experiments:
Assay in all cases: NCI-60 cell line screen, 48 h
[1] = test system: 786-0 renal
[2] = test system: A498 renal
[3] = test system: CCRF-CEM leukemia
[4] = test system: HOP-62 NSCLC
[5] = test system: HOP-92 NSCLC
[6] = test system: LOX IMVI melanoma
[7] = test system: MALME-3M melanoma
[8] = test system: NCI/ADR-RES ovarian
[9] = test system: OVCAR-3 ovarian
[10] = test system: SF-268 CNS

SMILES | TGI [1] | TGI [2] | TGI [3] | TGI [4] | TGI [5] | TGI [6] | TGI [7] | TGI [8] | TGI [9] | TGI [10] | GI50 [2] | GI50 [4] | GI50 [5] | GI50 [6] | GI50 [7] | GI50 [8] | GI50 [9] | GI50 [10]
Cc1cccc2c1CC1(Cc3c(C)cccc3C1=O)C2=O | > 100 µM | > 100 µM | > 100 µM | > 100 µM | > 100 µM | > 100 µM | > 100 µM | > 100 µM | > 100 µM | > 100 µM |  |  |  |  |  |  |  | 
CCCCCC(=O)OC[n+]1ccc(-c2c(COC(=O)NC(C)C)c(COC(=O)NC(C)C)c3n2CCC3)cc1 | > 100 µM | > 100 µM | > 100 µM | > 100 µM | > 100 µM | > 100 µM | > 100 µM | > 100 µM | > 100 µM | > 100 µM |  |  |  |  |  |  |  | 
O=C(Nc1ccccn1)c1cc2c(cc1Cl)Sc1nccn1S2(=O)=O | > 100 µM | > 100 µM | 95.9 µM | > 100 µM | > 100 µM | > 100 µM | > 100 µM | 85.6 µM | > 100 µM | > 100 µM |  |  |  |  |  |  |  | 
Cc1cn(C2CC(/[N+]([O-])=N\Nc3ccc([N+](=O)[O-])cc3)C(CO)O2)c(=O)[nH]c1=O (centres undefined) | > 100 µM | > 100 µM | > 100 µM | > 100 µM | > 100 µM | > 100 µM | > 100 µM | > 100 µM | > 100 µM | > 100 µM |  |  |  |  |  |  |  | 
CCOC(=O)C(C(=O)OCC)C(=S)NC1OC(COC(C)=O)C(OC(C)=O)C(OC(C)=O)C1OC(C)=O (centres undefined) | > 100 µM | > 100 µM | > 100 µM | > 100 µM | > 100 µM | > 100 µM | > 100 µM | > 100 µM | > 100 µM | > 100 µM |  |  |  |  |  |  |  | 
CC1(C)C/C=C\CCC(O)C(O)CCC(C)(C)C1=O (centres undefined) | > 100 µM | > 100 µM | > 100 µM | > 100 µM | > 100 µM | > 100 µM | > 100 µM | > 100 µM | > 100 µM | > 100 µM |  |  |  |  |  |  |  | 
COc1ccc(-c2cc(-c3ccncc3)nc(N)c2-c2ccc(F)cc2)cc1 | > 100 µM | > 100 µM | > 100 µM | > 100 µM | > 100 µM | > 100 µM | > 100 µM | > 100 µM | > 100 µM | > 100 µM |  |  |  |  |  |  |  | 
N#C[C@H](c1nc2ccccc2[nH]1)c1nc2ccccc2nc1Cl | > 100 µM | > 60.6 µM | 10.9 µM | > 31.1 µM | > 75.6 µM | 29.3 µM | 31.7 µM | > 100 µM | > 100 µM |  |  |  |  |  |  |  |  | 
O=C1C=C(NCCc2ccc(O)cc2)C(=O)C=C1NCCc1ccc(O)cc1 | > 100 µM | > 100 µM | > 100 µM | > 100 µM | > 100 µM | > 100 µM | > 100 µM | > 100 µM | > 100 µM | > 100 µM |  |  |  |  |  |  |  | 
NCCCCNCCCNC(=O)c1csc(-c2nc(CCN)sc2Cl)n1 | > 100 µM | > 100 µM | > 100 µM | > 100 µM | 79.5 µM |  | > 100 µM | > 100 µM | > 100 µM | > 100 µM |  |  |  |  |  |  |  | 
O=C1CSC2(CC(/C=C/c3ccccc3[N+](=O)[O-])=NN2c2cccc(S(=O)(=O)O)c2)N1c1nc2ccccc2s1 (centres undefined) | 22.5 µM | 38.7 µM | 43.5 µM |  | 56.7 µM | 34.5 µM | > 75 µM | 50.7 µM |  | 41.1 µM |  |  |  |  |  |  |  | 
O=[N+]([O-])c1ccc(N/N=C\c2ccc(O)cc2O)nc1 |  | > 100 µM |  | 45 µM | > 100 µM | > 100 µM | > 100 µM | 31.2 µM | 42.1 µM | > 100 µM | > 100 µM | 4.34 µM | 5.54 µM | 0.754 µM | 2.61 µM | 0.498 µM | 0.398 µM | 1.21 µM
COc1ccc(/C=C2\NC(=S)N(CN3CCOCC3)C2=O)cc1 | > 100 µM | > 100 µM | > 100 µM | > 100 µM | > 100 µM | > 100 µM | > 100 µM | > 100 µM | > 100 µM | > 100 µM |  |  |  |  |  |  |  | 
COc1ccc(C(CC(=O)c2ccc(O)cc2)C(C(=O)c2ccc(O)cc2)C(c2ccc(OC)cc2)C2C(=O)NC(=S)NC2=O)cc1 (centres undefined) | 44.2 µM | > 100 µM | 36 µM | 67.1 µM | > 100 µM | 38 µM |  | > 100 µM |  | 35.3 µM |  |  |  |  |  |  |  | 
O=C1CN2CCN(CC2)CC(=O)Nc2ccc(cc2)S(=O)(=O)c2ccc(cc2)NC(=O)CN2CCN(CC2)CC(=O)Nc2ccc(cc2)S(=O)(=O)c2ccc(cc2)N1 | > 100 µM | > 100 µM | 1.81 µM | > 93.6 µM | > 100 µM | > 100 µM | 38.8 µM | > 87.3 µM | > 100 µM | 38.7 µM |  |  |  |  |  |  |  | 
COc1ccccc1N1C(=O)/C(=C\c2ccccc2)SC1c1cc(OC)c(OC)c(OC)c1 (centres undefined) | > 100 µM | > 100 µM |  | > 100 µM | > 100 µM | 50.3 µM | > 100 µM | > 100 µM |  | > 100 µM |  |  |  |  |  |  |  | 
COC(=O)CCC(=O)c1ccc2c(c1)CC1(Cc3ccccc3C1)C2 | > 100 µM | > 100 µM | 45.4 µM | > 100 µM | > 100 µM | > 100 µM | > 100 µM | > 100 µM | > 100 µM |  |  |  |  |  |  |  |  | 
CCOC(=O)C1=CN(Cc2ccccc2)C2ON=C(c3ccc(Cl)cc3)C2C1 (centres undefined) | > 69.5 µM | > 56.8 µM | > 100 µM | > 67.7 µM | > 100 µM | > 74.2 µM | > 71.8 µM | > 72.3 µM | > 67.1 µM | > 66.3 µM |  |  |  |  |  |  |  | 
Cc1cc(NS(=O)(=O)c2ccc(N=Nc3c(Nc4ccccc4)nn(-c4ccc(S(=O)(=O)Nc5ccncn5)cc4)c3C)cc2)no1 | > 100 µM |  | > 100 µM | > 100 µM | > 100 µM | > 100 µM | > 100 µM | > 100 µM | > 100 µM |  |  |  |  |  |  |  |  | 
O=[N+]([O-])c1cnccc1-n1nnc2ccccc21 |  | 92.1 µM | > 86.5 µM | 59.3 µM | > 71.1 µM | 32.8 µM | 45.5 µM | 63.4 µM | > 31.6 µM | > 62.3 µM |  |  |  |  |  |  |  | 
